Results on one molecule are retold here after patent US20220251640A1, “METHODS OF DETERMINATION OF GENOME ARCHITECTURE AND EPIGENETIC PROFILE” (THE BROAD INSTITUTE, INC., priority 2019, published 2022).

One assay relates to GM12878 cells. As to the kind of experiment: Hi-Culfite on GM12878 cells treated with 5-azacytidine (methylation inhibition experiment). The assay is classed as cell-based, human. The conditions noted are these: for CpG C->T conversion: DMSO control 45.37%. The text has this: (§1) Hi-Culfite library construction (FIG. 1A) followed the initial steps of an in situ Hi-C protocol (8). One million cells were crosslinked with formaldehyde; chromatin was digested with a restriction enzyme; and the overhangs were filled in, incorporating a biotinylated nucleotide to mark the fragment ends after ligation. The DNA was then purified and sheared. Next, Applicants performed bisulfite conversion, which converted unmethylated cytosine residues into uracil but left methylated cytosine residues intact. Applicants captured the resulting single-stranded, biotin-marked ligation products on streptavidin beads. Finally, Applicants added adapters to the 3′ end, synthesized the second strand by primer extension, ligated adapters to the 3′ end of the 2nd strand, and PCR amplified with indexed primers.
(§2) Cell Culture: All commercial cell lines were cultured following vendors' recommendations to about 80% confluency before they were harvested and cross-linked in fresh complete medium. For methylation inhibition experiments, cultures of GM12878 (Coriell Institute) and Hap1 (Horizon) were grown for 8 days in medium supplemented with DMSO without drug or with 1 μM or 5 μM 5-azacytidine (Sigma Aldrich) solubilized in DMSO, refreshing the medium/drug every two days.
(§3) Library Construction: Hi-C libraries were prepared using the protocol described (8) Briefly, one million cells were crosslinked with 1% formaldehyde for 10 minutes at room temperature and then quenched with 0.2 M glycine solution. Cells were lysed and nuclei permeabilized with 0.5% SDS for 10 minutes at 62° C. Chromatin was digested with 100 U of MboI restriction enzyme (NEB). Ends of the restriction fragments were filled-in and labeled with a biotinylated nucleotide and then ligated. Nuclei were pelleted, proteins were digested with proteinase K, and crosslinks were reversed by heating at 68° C. overnight. DNA was sheared in a Covaris focused ultrasonicator to a length of 300-500 bp. Size-selected DNA was split for processing with two workflows—10% of the material was used for preparation of a regular Hi-C library (unconverted control) and 90% of the DNA was used for Hi-Culfite library construction. Hi-C libraries were finished by enriching for biotinylated ligation junctions through binding to T1 streptavidin beads (Thermo Fisher) and preparing the library for Illumina sequencing performing the end-repair, A-tailing and adapter ligation steps with DNA attached to the beads. Libraries were amplified directly off the beads and purified for subsequent Illumina sequencing.
(§4) DNA for Hi-Culfite was first treated with sodium bisulfite using EpiTect Fast bisulfite conversion kit (Qiagen) following the kit's instructions and extending each of the two 60° C. conversion incubations to 20 minutes. Converted DNA was purified without addition of an RNA carrier to the binding buffer. Biotinylated ligation junctions in purified bisulfite-converted DNA were captured on 15 μl C1 streptavidin beads (Thermo Fisher) in denaturing binding buffer (10 mM Tris pH 7.5; 5 mM EDTA; 500 mM LiCl; 0.5% Igepal CA630; 0.2% SDS; 4 M Urea) for 10 minutes at 55° C. DNA was washed twice with binding buffer at 55° C. and once with 10 mM Tris. Beads were resuspended in 15 μl of 10 mM Tris, and libraries were detached from the beads by heating for 5 minutes at 95° C. After separating on a magnet, library construction for Illumina sequencing was performed on the supernatant containing ssDNA library using Accel-NGS Methyl-Seq kit (Swift Biosciences) following the kit's manual.
Methylation Track Generation with MethylDackel: Duplicate Hi-C contacts were marked as duplicates in the methylation BAM. Applicants then called the program Methyl Dackel extract with the flag “-F 1024”; this ignored duplicates reads but kept all other mapped reads with MAPQ ≥10. MethylDackel generated CpG methylation tracks, a cytosine coverage report, and an input file for the analysis program MethylKit26. […]

The subject of the next assay is Hap1 cells. In words: Hi-Culfite on Hap1 cells treated with 5-azacytidine (methylation inhibition experiment). The class given is cell-based. The conditions noted are these: for CpG C->T conversion: DMSO control 37.66%.
From the text: as §1, §2, §3
as §4, with “Beads were resuspended in 15 μl of 10 mM Tris, and libraries were detached from the beads by heating for 5 minutes at 95° C. After separating on a magnet, library construction for Illumina sequencing was performed on the supernatant containing ssDNA library using Accel-NGS Methyl-Seq kit (Swift Biosciences) following the kit's manual.” left out
Methylation Track Generation with MethylDackel: Duplicate Hi-C contacts were marked as duplicates in the methylation BAM. Applicants then called the program Methyl Dackel extract with the flag “-F 1024”; this ignored duplicates reads but kept all other mapped reads with MAPQ ≥10. […]

The structures appear in SMILES notation. “Also recorded” adds a separate entry of the source.

In the case of `Nc1ncn([C@@H]2O[C@H](CO)[C@@H](O)[C@H]2O)c(=O)n1` [5-azacytidine], the “CpG C->T conversion” value is 69.46% in the assay on GM12878 cells (GM12878, 1 μM 5-azacytidine in DMSO, 8 days); 75.08% with GM12878 cells (GM12878, 5 μM 5-azacytidine in DMSO, 8 days); 86.16% in the assay on Hap1 cells (Hap-1, 1 μM 5-azacytidine in DMSO, 8 days); 85.79% in the assay with Hap1 cells (Hap-1, 5 μM 5-azacytidine in DMSO, 8 days). Besides, the “impact on nuclear architecture / chromosome-level nuclear organization (contact maps, eigenvectors)” value with GM12878 cells (GM12878, 1 uM and 5 uM, 8 days, vs DMSO) is “did not discern an impact on nuclear architecture; also recorded: no effect on chromosome-level nuclear organization”; in the assay on Hap1 cells (Hap1, 1 uM and 5 uM, 8 days, vs DMSO), “did not discern an impact on nuclear architecture; also recorded: no effect on chromosome-level nuclear organization”. Further, the “looping signal by Aggregate Peak Analysis” value with GM12878 cells (GM12878, increasing 5-azacytidine concentration) was “no significant changes in looping signal”; in the assay on Hap1 cells (HapI, increasing 5-azacytidine concentration), “no significant changes in looping signal”. Further, the “genome-wide decline of methylation (on average)” value is given as 2 fold with GM12878 cells (GM12878 treated with 5-azacytidine, average stated jointly for GM12878 and HapI); 2 fold in the assay with Hap1 cells (HapI treated with 5-azacytidine, average stated jointly for GM12878 and HapI). Also, in the assay on GM12878 cells (increasing concentration of 5-azacytidine, GM12878 CTCF motifs), the “nucleosome occupancy and directional methylation asymmetry at CTCF motifs (aggregate methylation analysis)” value was “no changes to nucleosome occupancy and directional methylation asymmetry”.
